What was measured:
[1] = tested on: rodent and non-human primate models of T2DM; set-up: method as in PMID 28705990; details: cited from earlier work
[2] = tested on: HEK293T/17 cells expressing WT γ1AMPK; assay: α-Thr172 phosphorylation immunoblot, HEK293T/17 cells transiently expressing WT γ1AMPK; type: cell-based; details: WT γ1-expressing cells, 2.5 µM, 60 min
Procedure: To explore this dose-dependent response, we used HEK293T/17 cells transiently expressing WT γ1AMPK or the AMP-insensitive γ1 mutant R299G (Supplementary Figure S4A). […] One explanation is that 2.5 µM MK-8722 caused indirect activation of AMPK (α-Thr172 phosphorylation) by inducing a metabolic stress leading to rises in AMP/ATP and ADP/ATP ratios. We examined the effect of MK-8722 incubation on C2C12 mitochondrial function (Supplementary Figure S4B–I).
HEK293T/17, HEK293T, COS7, HeLa and PC3 cells (ATCC) were maintained in Dulbecco's Modified Eagle's medium (DMEM; Sigma–Aldrich) supplemented with 10% fetal bovine serum (FBS; Assay Matrix) at 37°C and 5% CO2. Primary hepatocytes from wild type mice were prepared using the collagenase perfusion method and cultured as described previously. […]
(§1) All samples were separated on 12% SDS–PAGE gels and transferred to an Immobilon-FL PVDF membrane (Merck Millipore). […] Immunoblots were visualised on the Odyssey Infrared Imaging System (LI-COR Biosciences) and immunoreactive bands analysed and quantified using Image Studio Software (LI-COR Biosciences).
Lysates were assessed for phosphorylation of AMPKα-Thr172 by immunoblot. n = 3, data presented as mean T172 phosphorylation (arbitrary units) ± SEM. […] (J) Lysates were assessed for total protein content following the respiration assay.

HEK293T cells [3] = assay: Immunoblot of AMPK signalling in HEK293T cells; type: cell-based; details: 2.5 µM, 1 h
Procedure: (§2) To evaluate the efficacy of MSG011 in cellulo, we incubated mouse primary hepatocytes with 2.5 µM MSG011 for 60 min and tracked changes in phosphorylation of AMPK α-Thr172 (marker of activation) and the AMPK substrate acetyl-CoA carboxylase (ACC) Ser79 (AMPK signalling marker).
(§3) HEK293T/17, HEK293T, COS7, HeLa and PC3 cells (ATCC) were maintained in Dulbecco's Modified Eagle's medium (DMEM; Sigma–Aldrich) supplemented with 10% fetal bovine serum (FBS; Assay Matrix) at 37°C and 5% CO2. Primary hepatocytes from wild type mice were prepared using the collagenase perfusion method and cultured as described previously. Cultures were incubated with fresh DMEM (no FBS) for 2 h prior to 1 h treatment with MSG011 (dissolved in DMSO) or phenformin (dissolved in H2O). Adherent HEK293T/17 cells at ∼50% confluency were triply transfected with AMPK α1 (pcDNA3.1 vector), β1 (COOH-terminal MYC fusion, pcDNA3.1 vector) and WT γ1 or γ1-R299G mutant (NH2-terminal HA fusion, pMT2 vector) in the presence of FuGENE HD transfection reagent (Promega) as per the manufacturers protocol. […]
as §1

HEK293T cells [4] = assay: Adenylate energy charge by LC-MS in HEK293T cells; type: cell-based; details: MSG011 up to 40 µM, 1 h
Procedure: HEK293T cell cultures grown in six-well plates were gently washed in ice cold PBS, lysed with 150 µl of ice cold 0.5 M perchloric acid (Univar) and clarified by centrifugation (16 000g, 3 min, 4°C). An amount of 75 µl of clarified lysate was neutralised with 25 µl of ice cold 2.3 M KHCO3 (Sigma–Aldrich), incubated on ice for 5 min and then centrifuged (16 000g, 3 min, 4°C). Supernatants were collected for analysis by liquid chromatography mass spectrometry–mass spectrometry (LC–MS/MS).
Adenine nucleotide metabolites were measured by LC–MS/MS with modifications to our previously described method. A QTRAP 5500 mass spectrometer (AB Sciex) was operated with the turbo V ion source linked to Prominence UFLCXR LC-20ADXR pumps (Shimadzu), SIL-20AC HT autosampler (Shimadzu) and CTO-20A HPLC column oven (Shimadzu). Both LC and MS instruments were controlled and managed with the Analyst 1.7.1 software (AB Sciex). Nitrogen was provided by a Genius NM3G nitrogen gas generator (PEAK Scientific). […] Data was analysed with MultiQuant 3.0.2 software (AB Sciex) using area under the LC curve. Calibration curves were determined by linear regression of the peak area ratio of each nucleotide and were required to have a correlation coefficient (R^2) of >0.98. […] AEC was calculated from the ratios of [AMP], [ADP] and [ATP] […]

[5] = tested on: mouse primary hepatocytes; assay: Immunoblot of AMPK signalling in mouse primary hepatocytes; type: cell-based; details: 2.5 µM, 60 min
Procedure: as §2, §3, §1

| adenylate energy charge (AEC) (HEK293T cells [4]) | SMILES | cardiac hypertrophy ([1]; lean and diabetic animal models) | key disease hallmarks (systemic glucose clearance, glycaemic control) ([1]; rodent and non-human primate models of T2DM) | phosphorylation of α-Thr172 [2] | AMPK signalling (phosphorylation of ACC-Ser79 and raptor-Ser792) (HEK293T cells [3]) | α-Thr172 phosphorylation (HEK293T cells [3]) | phosphorylation of AMPK α-Thr172 [5] |
| --- | --- | --- | --- | --- | --- | --- | --- |
|  | O[C@@H]1CO[C@H]2[C@@H]1OC[C@H]2Oc1nc2nc(-c3ccc(-c4ccccc4)cc3)c(Cl)cc2[nH]1 [MK-8722, reference compound] | reversible cardiac hypertrophy | robust improvements in key disease hallmarks | significantly increased |  |  |  |
| unaffected | CC(=O)NC1CC=C(c2ccc(-c3nc4nc(Oc5ccc(C)c(C(=O)O)c5)[nH]c4cc3Cl)cc2)CC1 (stereo not shown) [MSG011, 5-((5-(4′-Acetamido-2′,3′,4′,5′-tetrahydro-[1,1′-biphenyl]-4-yl)-6-chloro-1H-imidazo[4,5-b]pyridin-2-yl)oxy)-2-methylbenzoic acid] |  |  |  | at levels comparable to extreme energy stress | independent of changes to α-Thr172 phosphorylation | independently of significant net phosphorylation of AMPK α-Thr172 |
